{"source": "patent US20220387435A1", "about": "“USE OF MULTI-TARGET PROTEIN KINASE INHIBITOR” (CSPC Zhongqi Pharmaceutical Technology (Shijiazhuang) Co., …, priority 2019, published 2022)", "origin": "cited, not measured here", "key": {"AML patients [1]": {"system": "AML patients", "settings": "cited from earlier work; for Main toxicity: similar products, prior art"}, "AML patients [2]": {"system": "AML patients", "settings": "cited from earlier work; for CR rates in monotherapy for R/R AML: Sorafenib 400 mg BID, Midostaurin 50 mg BID, Quizartinib 30-60 mg QD, Gilteritinib 120 mg QD"}, "FLT3-TKD mutation": {"system": "FLT3-TKD mutation", "settings": "similar products, prior art; cited from earlier work"}, "[3]": {"settings": "120 mg daily, N = 246, ADMIRAL trial"}, "[4]": {"settings": "phase 3 clinical trial of Gilteritinib"}, "[5]": {"settings": "phase 3 clinical trial of Quizatinib"}, "[6]": {"settings": "phase II trial of oral Quizartinib, relapsed/refractory AML"}, "[7]": {"settings": "phase II trial of oral Quizartinib"}}, "note": "Entries after “also recorded” stand apart in the source; their conditions may differ.", "data": [{"smiles": "CCc1nc(C(N)=O)c(Nc2ccc(N3CCC(N4CCN(C)CC4)CC3)c(OC)c2)nc1NC1CCOCC1", "note": "[Gilteritinib]", "values": [{"measurement": "Most common ADRs of grade ≥ 3: Anemia", "setting": "AML patients [1]; [3]", "result": "100 (40.7%)"}, {"measurement": "Most common ADRs of grade ≥ 3: Febrile neutropenia", "setting": "AML patients [1]; [3]", "result": "113 (45.9%)"}, {"measurement": "Most common ADRs of grade ≥ 3: Thrombocytopenia", "setting": "AML patients [1]; [3]", "result": "56 (22.8%)"}, {"measurement": "Cardiotoxicity ADR: Cardiac failure", "setting": "AML patients [1]; 120 mg daily, N = 292", "result": 4, "unit": "%"}, {"measurement": "Cardiotoxicity ADR: Pericardial effusion", "setting": "AML patients [1]; 120 mg daily, N = 292", "result": 3, "unit": "%"}, {"measurement": "Cardiotoxicity ADR: Pericarditis", "setting": "AML patients [1]; 120 mg daily, N = 292", "result": 2, "unit": "%"}, {"measurement": "Cardiotoxicity ADR: QT interval prolongation", "setting": "AML patients [1]; 120 mg daily, N = 292", "result": 8.4, "unit": "%"}, {"measurement": "incidence of ALT elevation of all grades", "setting": "AML patients [1]; [4]", "result": 26.3, "unit": "%"}, {"measurement": "incidence of ALT elevation of grade ≥3", "setting": "AML patients [1]; [4]", "result": 12.9, "unit": "%"}, {"measurement": "incidence of AST elevation of all grades", "setting": "AML patients [1]; [4]", "result": 80.6, "unit": "%"}, {"measurement": "incidence of QT interval prolongation of all grades", "setting": "AML patients [1]; [4]", "result": 8.8, "unit": "%"}, {"measurement": "incidence of QT interval prolongation of grade ≥3", "setting": "AML patients [1]; [4]", "result": 2.5, "unit": "%"}, {"measurement": "Main toxicity", "setting": "AML patients [1]", "result": "Transaminase; also recorded: diarrhea"}]}, {"smiles": "CO[C@@H]1[C@H](N(C)C(=O)c2ccccc2)C[C@H]2O[C@]1(C)n1c3ccccc3c3c4c(c5c6ccccc6n2c5c31)C(=O)NC4", "note": "[Midostaurin]", "values": [{"measurement": "Main toxicity", "setting": "AML patients [1]", "result": "Gastrointestinal; also recorded: myelosuppression"}]}, {"smiles": "CC(C)(C)c1cc(NC(=O)Nc2ccc(-c3cn4c(n3)sc3cc(OCCN5CCOCC5)ccc34)cc2)no1", "note": "[Quizartinib]", "values": [{"measurement": "CR", "setting": "AML patients [2]; Quizatinib Japan phase 2 53 mg 26 cases, prior lines not limited", "result": 0, "unit": "cases"}, {"measurement": "CR rates in monotherapy for R/R AML", "setting": "AML patients [2]", "result": "24-47%"}, {"measurement": "serious hematological adverse reaction: anemia", "setting": "AML patients [1]; [5]", "result": 25.9, "unit": "%"}, {"measurement": "serious hematological adverse reaction: cytopenia", "setting": "AML patients [1]; [5]", "result": 2.5, "unit": "%"}, {"measurement": "serious hematological adverse reaction: febrile neutropenia", "setting": "AML patients [1]; [5]", "result": 15.8, "unit": "%"}, {"measurement": "serious hematological adverse reaction: leukopenia", "setting": "AML patients [1]; [5]", "result": 18.0, "unit": "%"}, {"measurement": "serious hematological adverse reaction: lymphopenia", "setting": "AML patients [1]; [5]", "result": 4.0, "unit": "%"}, {"measurement": "serious hematological adverse reaction: neutropenia", "setting": "AML patients [1]; [5]", "result": 25.9, "unit": "%"}, {"measurement": "serious hematological adverse reaction: thrombocytopenia", "setting": "AML patients [1]; [5]", "result": 34.2, "unit": "%"}, {"measurement": "adverse reaction: anemia", "setting": "AML patients [1]; [6]", "result": 29, "unit": "%"}, {"measurement": "adverse reaction: diarrhea", "setting": "AML patients [1]; [6]", "result": 20, "unit": "%"}, {"measurement": "adverse reaction: fatigue", "setting": "AML patients [1]; [6]", "result": 20, "unit": "%"}, {"measurement": "adverse reaction: febrile neutropenia", "setting": "AML patients [1]; [6]", "result": 25, "unit": "%"}, {"measurement": "adverse reaction: nausea", "setting": "AML patients [1]; [6]", "result": 38, "unit": "%"}, {"measurement": "adverse reaction: vomiting", "setting": "AML patients [1]; [6]", "result": 26, "unit": "%"}, {"measurement": "dose-limiting toxicity response", "setting": "AML patients [1]; [7]", "result": "QT prolongation of Grade 3"}, {"measurement": "patients discontinuing the treatment due to adverse events", "setting": "AML patients [1]; [7]", "result": 10, "unit": "%"}, {"measurement": "Main toxicity", "setting": "AML patients [1]", "result": "QTinterval; also recorded: myelosuppression"}]}, {"smiles": "CNC(=O)c1cc(Oc2ccc(NC(=O)Nc3ccc(Cl)c(C(F)(F)F)c3)cc2)ccn1", "note": "[Sorafenib]", "values": [{"measurement": "CR rates in monotherapy for R/R AML", "setting": "AML patients [2]", "result": "<10", "unit": "%"}, {"measurement": "FLT3-TKD mutation activity", "setting": "FLT3-TKD mutation", "result": "No"}, {"measurement": "Main toxicity", "setting": "AML patients [1]", "result": "Rash, bleeding,; also recorded: myelosuppression"}]}]}
